These molecules were tested against unphosphorylated-BTK kinase domain (UP-BTK), GST-tagged human BTK (389-659aa) (Homo sapiens (Human), UniProt Q06187) (assay: BTK kinase Lanthascreen binding assay). Conditions: Lanthascreen tracer competition, 60 minutes incubation; pIC50 = negative log of the IC50 in molar.
Outline: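 A fluorescent tracer is bound to unphosphorylated BTK; test compound is added to compete it off; the Lanthascreen signal is read and IC50 is fitted, then reported as its negative log in molar.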

Chain of unphosphorylated-BTK kinase domain (UP-BTK), GST-tagged human BTK (389-659aa) (Q06187 389-659): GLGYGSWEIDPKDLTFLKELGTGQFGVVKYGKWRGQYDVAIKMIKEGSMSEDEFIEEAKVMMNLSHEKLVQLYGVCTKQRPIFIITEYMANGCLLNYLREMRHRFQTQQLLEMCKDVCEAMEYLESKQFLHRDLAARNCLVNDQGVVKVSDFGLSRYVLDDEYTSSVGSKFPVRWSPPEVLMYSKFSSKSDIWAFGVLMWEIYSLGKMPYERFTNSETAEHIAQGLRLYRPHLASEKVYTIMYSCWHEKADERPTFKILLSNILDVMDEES

Going from `C=CC(=O)N1C[C@@H](O)[C@@H](NC(=O)c2sc3nccc4c3c2NC(=O)N4c2ccc(OC(C)C)cc2C)C1` [Example 614, N-((3S,4R)-1-Acryloyl-4-hydroxypyrrolidin-3-yl)-5-(4-isopropoxy-2-methylphenyl)-4-oxo-4,5-dihydro-3H-1-thia-3,5,8-triazaacenaphthylene-2-carboxamide] to `C=CC(=O)N1CCC[C@@H](NC(=O)c2sc3nccc4c3c2NC(=O)N4c2ccc(OCCOC(C)C)cc2C)C1` [Example 696, (R)—N-(1-Acryloylpiperidin-3-yl)-5-(4-(2-isopropoxyethoxy)-2-methylphenyl)-4-oxo-4,5-dihydro-3H-1-thia-3,5,8-triazaacenaphthylene-2-carboxamide], the “BTK_I_binding pIC50” value rises from 6.1 to 6.9.

Going from `CN1CCC[C@@H](NC(=O)c2sc3nccc4c3c2NC(=O)N4c2cccc(-c3cccc(F)c3F)c2)C1` [Example 710, (R)-5-(2′,3′-Difluoro-[1,1′-biphenyl]-3-yl)-N-(1-methylpiperidin-3-yl)-4-oxo-4,5-dihydro-3H-1-thia-3,5,8-triazaacenaphthylene-2-carboxamide] to `Cc1cc(Oc2ccccc2)ccc1N1C(=O)Nc2c(C(=O)N[C@H]3CCCN(C(=O)/C(C#N)=C/C4CC4)C3)sc3nccc1c23` [Example 899, (S,E)-N-(1-(2-Cyano-3-cyclopropylacryloyl)piperidin-3-yl)-5-(2-methyl-4-phenoxyphenyl)-4-oxo-4,5-dihydro-3H-1-thia-3,5,8-triazaacenaphthylene-2-carboxamide], the “BTK_I_binding pIC50” value falls from 7.4 to 6.8.

In the case of `CC(C)(C)OC(=O)N1CCC[C@@H](NC(=O)c2sc3nccc4c3c2NC(=O)N4c2ccc3c(c2)OC(F)(F)O3)C1` [Example 653, (R)-tert-Butyl 3-(5-(2,2-difluorobenzo[d][1,3]dioxol-5-yl)-4-oxo-4,5-dihydro-3H-1-thia-3,5,8-triazaacenaphthylene-2-carboxamido)piperidine-1-carboxylate], the “BTK_I_binding pIC50” value is reported as less than 5.

Same assay, conditions: pIC50 = negative log of the IC50 in molar; 60 minutes incubation, 50 nM Tracer 236

Compared with `C=CC(=O)N1CCC[C@@H](NC(=O)c2sc3nccc4c3c2NC(=O)N4c2cccc(C)c2)C1` [Example 279, (R)—N-(1-Acryloylpiperidin-3-yl)-4-oxo-5-(m-tolyl)-4,5-dihydro-3H-1-thia-3,5,8-triazaacenaphthylene-2-carboxamide], `C=CC(=O)N1CCC[C@@H](NC(=O)c2sc3nccc4c3c2NC(=O)N4c2ccc(OCC)cc2C)C1` [Example 66, (R)—N-(1-Acryloylpiperidin-3-yl)-5-(4-ethoxy-2-methylphenyl)-4-oxo-4,5-dihydro-3H-1-thia-3,5,8-triazaacenaphthylene-2-carboxamide] is higher in “BTK_I_binding pIC50” value: 6.2 for the first, 7.4 for the second.

First: Cc1cc(Oc2ccccc2)ccc1N1C(=O)Nc2c(C(=O)N[C@H]3CCOC3)sc3nccc1c23 (single isomer, unassigned) [Example 68, (S)-5-(*S)-(2-Methyl-4-phenoxyphenyl)-4-oxo-N-(tetrahydrofuran-3-yl)-4,5-dihydro-3H-1-thia-3,5,8-triazaacenaphthylene-2-carboxamide]
Second: CCN1CC[C@@H](NC(=O)c2sc3nccc4c3c2NC(=O)N4c2ccc(Oc3ccccc3)cc2C)C1 [Example 141, (R)—N-(1-Ethylpyrrolidin-3-yl)-5-(2-methyl-4-phenoxyphenyl)-4-oxo-4,5-dihydro-3H-1-thia-3,5,8-triazaacenaphthylene-2-carboxamide]
The “BTK_I_binding pIC50” value of the first is higher: 7.7 for the first, 6.8 for the second.

First: O=C(N[C@@H]1CCCNC1)c1sc2nccc3c2c1NC(=O)N3c1c(F)cc(Oc2ccccc2)cc1F [Example 235, (R)-5-(2,6-difluoro-4-phenoxyphenyl)-4-oxo-N-(piperidin-3-yl)-4,5-dihydro-3H-1-thia-3,5,8-triazaacenaphthylene-2-carboxamide]
Second: C#CC(=O)N1CCC[C@@H](NC(=O)c2sc3nccc4c3c2NC(=O)N4c2ccc(Oc3ccccc3)cc2C)C1 (single isomer, unassigned) [Example 46, (R)-5-(*S)-(2-methyl-4-phenoxyphenyl)-4-oxo-N-(1-propioloylpiperidin-3-yl)-4,5-dihydro-3H-1-thia-3,5,8-triazaacenaphthylene-2-carboxamide]
The “BTK_I_binding pIC50” value of the first is lower: 7.0 for the first, 7.9 for the second.

Same assay, conditions: pIC50 = negative log of the IC50 in molar; 60 minutes incubation, 50 nM Tracer 236; read-out: BTK_I_binding pIC50 (converted)

Compared with `C=C(Cl)C(=O)N1CCC[C@@H](NC(=O)c2sc3nccc4c3c2NC(=O)N4c2ccc(Oc3ccccc3)cc2C)C1` [Example 26, (R)—N-(1-(2-Chloroacryloyl)piperidin-3-yl)-5-(2-methyl-4-phenoxyphenyl)-4-oxo-4,5-dihydro-3H-1-thia-3,5,8-triazaacenaphthylene-2-carboxamide], `C=CC(=O)N1CC(OC)[C@@H](NC(=O)c2sc3nccc4c3c2NC(=O)N4c2ccc(Oc3ccccc3)cc2C)C1` (stereo in doubt) [Example 34, N-((3S,4R)-1-Acryloyl-4-methoxypyrrolidin-3-yl)-5-(2-methyl-4-phenoxyphenyl)-4-oxo-4,5-dihydro-3H-1-thia-3,5,8-triazaacenaphthylene-2-carboxamide] is 2-fold lower in IC50: 50.1 nM for the first, 25.1 nM for the second.

Same assay, conditions: unphosphorylated-BTK kinase domain, 50 nM Tracer 236, 60 minutes; pIC50 = negative log of the IC50 in molar

First: Cc1cc(C(C)C)ccc1N1C(=O)Nc2c(C(=O)N[C@@H]3CCCNC3)sc3nccc1c23 [Example 446, (R)-5-(4-Isopropyl-2-methylphenyl)-4-oxo-N-(piperidin-3-yl)-4,5-dihydro-3H-1-thia-3,5,8-triazaacenaphthylene-2-carboxamide]
Second: Cc1cc(Oc2ccccc2)ccc1N1C(=O)Nc2c(C(=O)N[C@@H]3CCN(C(=O)CCl)C3)sc3nccc1c23 [Example 395, (R)—N-(1-(2-Chloroacetyl)pyrrolidin-3-yl)-5-(2-methyl-4-phenoxyphenyl)-4-oxo-4,5-dihydro-3H-1-thia-3,5,8-triazaacenaphthylene-2-carboxamide]
The “BTK_I_binding pIC50” value of the first is lower: 5.8 for the first, 8.0 for the second.

Compared with `C=CC(=O)N1CCC[C@@H](NC(=O)c2sc3nccc4c3c2NC(=O)N4c2cccc(Oc3ccccc3)c2)C1` [Example 527, (R)—N-(1-Acryloylpiperidin-3-yl)-4-oxo-5-(3-phenoxyphenyl)-4,5-dihydro-3H-1-thia-3,5,8-triazaacenaphthylene-2-carboxamide], `C=CC(=O)N1CCC[C@@H](NC(=O)c2sc3nccc4c3c2NC(=O)N4c2cc(-c3ccccc3)ccn2)C1` [Example 526, (R)—N-(1-Acryloylpiperidin-3-yl)-4-oxo-5-(4-phenylpyridin-2-yl)-4,5-dihydro-3H-1-thia-3,5,8-triazaacenaphthylene-2-carboxamide] is lower in “BTK_I_binding pIC50” value: 8.1 for the first, 7.6 for the second.

Same assay, conditions: unphosphorylated-BTK kinase domain, 60 minutes incubation, 50 nM Tracer 236; pIC50 = negative log of the IC50 in molar

First: Cc1cc(OC(C)C)ccc1N1C(=O)Nc2c(C(=O)N[C@@H]3CCCN(C(=O)/C=C/CN(C)C)C3)sc3nccc1c23 [Example 913, (R,E)-N-(1-(4-(Dimethylamino)but-2-enoyl)piperidin-3-yl)-5-(4-isopropoxy-2-methylphenyl)-4-oxo-4,5-dihydro-3H-1-thia-3,5,8-triazaacenaphthylene-2-carboxamide]
Second: N#C/C(=C\C1CC1)C(=O)N1CCC[C@H](NC(=O)c2sc3nccc4c3c2NC(=O)N4c2ccc(C(=O)Nc3cc(C(F)(F)F)ccn3)cc2F)C1 [Example 902, (S,E)-N-(1-(2-Cyano-3-cyclopropylacryloyl)piperidin-3-yl)-5-(2-fluoro-4-((4-(trifluoromethyl)pyridin-2-yl)carbamoyl)phenyl)-4-oxo-4,5-dihydro-3H-1-thia-3,5,8-triazaacenaphthylene-2-carboxamide]
The “BTK_I_binding pIC50” value of the first is lower: 6.5 for the first, 6.8 for the second.
